Results as given in patent publication US20230226135A9, “ACETYLCHOLINE MODULATION OF IMMUNE FUNCTION” (BCell Solutions, Inc., priority 2019, published 2023).
Entries after “also recorded” stand apart in the source; their conditions may differ.

Experiments:
IL1b, IL6 and IL17 = test: TBI-induced changes in brain cytokines; assay type: in vivo, mice; settings: CAP i.p. 30 minutes after TBI, brains harvested 24 hours after TBI; not significant, under-powered
Procedure: FIG. 10. TBI-induced changes in brain cytokines. TBI induced increase in brain IL1b, IL6 and IL17 are reversed by CAP. Cap was administered i.p. 30 minutes after TBI and brains were harvested 24 hours after TBI.
In a separate study, preeclampsia was induced in pregnant mice by injection of either the toll-like receptor 3 (TLR3) agonist, PolyI:C, or with the toll-like receptor 8 ([…]) agonist R837. […] It is pertinent to note that this power issue has been corrected.

CD8+ T cells = test: CAP-induced expansion of CD8+ T cells with or without α7nAChR antagonist; assay type: in vivo; settings: CAP treatment
[1] = Dosing formulation storage and stability; assay type: physicochemical; settings: 5 mg/mL DMSO stock
Procedure: Test Article Formulation Instructions & Calculations: Peptide dosing solution (0.2 mg/mL) was made fresh daily within 1 hour of use by diluting 0.09 mL of 5 mg/mL DMSO stock into 2.11 mL sterile saline. DMSO stock was kept at 4 C, then refrozen (to avoid repeated freeze-thaw cycles). Still, stock was relatively “solid” even at 4 C.
MLA antagonist dosing solution (0.6 mg/mL) was made on Day 2 by diluting the entire 5 mg in the sealed vial with 8.3 mL of sterile saline and aliquoting out ˜1.1 mL in each of seven 2 mL cryovials and freezing at −20 C. Four vials were used in the experiment, each thawed within 1 hour of use. Three vials remain frozen.
Dosing Formulations and Vehicle Storage & Stability: Saline vehicle is stable at 4 C for months. Peptide dosing solutions were made up and used fresh daily. […] MLA frozen “stock” solutions were stable for up to 1 month.

[2] = test system: blood brain barrier (BBB); test: Intravital microscopy of BBB permeability and lymphocyte adhering/rolling in pial venules; assay type: in vivo, C57 BL/6J mice
Excerpt: Whether intranasal infection with Streptococcus pyogenes would induce blood-brain barrier permeability in C57 BL/6J mice by a TLR-dependent mechanism was examined. Immediately following craniotomy, mice were placed under an intravital microscope to study vascular permeability and leukocytes. Permeability of cerebral blood vessels was observed using FITC-dextran fluorescent dye and, tracing of leukocytes is observed by labeling such cells with Rhodamine-6G. Intranasal infection with Streptococcus pyogenes (gram positive) increased BBB permeability (FIG. 4) and the number of adherent or rolling lymphocytes (FIG. 4) within 24 hours post-infection, compared to saline treated controls.
Methods: To test the hypothesis that intranasal infection may increase BBB permeability, we exposed mice to GAS via intranasal infection with Streptococcus pyogenes (GAS). We assessed BBB permeability using intravital microscopy, and we characterized the immune response to GAS using flow cytometric analysis of nasal associated lymphoid tissue (NALT), spleen, and brain.
Intranasal infection: Isoflurane gas was employed to briefly anesthetize mice (1-2 minutes). Once anesthetized, 7.5 uL of streptococcal bacterial suspension (OD600=0.5-0.6) was placed on each nares (outer nostril) of mouse. Control mice received intranasal inoculation with vehicle (PBS). The droplets were inhaled into nasal sinuses. This small volume avoids inoculation of the lungs, but reproducibly results in colonization of nasal-associated lymphoid tissue (NALT, Park 2003; Wang 2010).
Intraperitoneal injection: The TLR 1/2 agonist, Pam-3-Cys (25 ug/mouse; Pam3CSK4, InvivoGen, San Diego Calif.) was intraperitoneally (right side) injected into mice 24 hours before intravital microscopy. P3C causes immune cell activation and polycolonal expansion of B-lymphocytes by Toll-Like receptor ligation (Newell 2010). Control mice received equal volume of vehicle (PBS) intraperitoneally.
MHC class II-targeted proprietary peptide (TPP, Elim Biopharmaceuticals Inc., Hayward Calif.; also see Newell 2010) was administered intraperitoneally (5 ug/mouse, left side), sometimes in conjunction with P3C (right side). TPP was dissolved in DMSO for a final concentration of 2.5% DMSO in PBS. Control mice received vehicle (2.5% DMSO in PBS) intraperitoneally.
Preparation of Mice: Mice were anesthetized with an (i.p.) injection of 50% urethane (Sigma-Aldrich, U2500) in PBS ([…]) and maintained on heating pad. Anesthetic plane was assessed throughout preparation and experiments, by response to toe pinch. If needed, urethane supplement was given at 10% of original dose volume. To prepare mice tails for intravenous (i.v.) dye injection we maintained anesthetized mice on a heating pad for 10-15 minutes, and then briskly wiped tails (toward tail-end) with 70% ethanol wipes to remove scales/hair and increase vasodilation. Immediately following tail wiping, Fluorescein dextran 10 kDa (10 mg/mL, Sigma-Aldrich, FD10S) was administered (2 uL/g mouse) via right lateral tail vein and, Rhodamine 6G (0.2 mg/mL, Sigma-Aldrich, 83697) was administered (1.6 uL/g mouse) via left lateral tail vein. When needed, tail was wiped multiple times to ensure clear visualization of tail veins. Following successful (i.v.) injection of dyes, mice underwent craniotomy.
Craniotomy: A craniotomy (removal of a small area of skull) was performed to expose the cerebrum and allow imaging of cerebral microvasculature (specifically pial vessels of pia mater). First, an incision across the midline of the scalp was made to expose the right parietal bone. The skull was then carefully marked with a waterproof marker, designating the area, 1 mm posterior from the Bregma and 4 mm lateral from the midline, to be removed (craniotomy diameter: 2.5 mm). Next, the craniotomy was performed with a drill ensuring the dura mater was not cut. […]

CLIP+ B cells = test: CFA-induced arthritis model, CAP depletion of B cells with or without α7nAChR antagonist; assay type: in vivo, mice
Procedure: FIGS. 11A-11B. […] In this study, CAP was administered at 3 days after CFA, then once daily every 3 days, until day 10 after CFA.
The next series of experiments are focused on the effects of CAP on splenic immune cells. […] As part of this experiment, the mice were co-treated with CAP and the alpha-7 nicotinic acetylcholine receptor (α7nAChR) antagonist, methyllycaconitine (MCA).

[3] = TPP 5 ug/mouse i.p., 24 hours, listed as TPP

FRIMAVLAS [CAP, α7nAChR agonist]
brain IL1b, IL6 and IL17 (IL1b, IL6 and IL17): trend toward a reduction; also recorded: reversed | expansion of CD8+ T cells (CD8+ T cells): induce the expansion; also recorded: induces expansion | stability of DMSO stock [1]: stable for a few months | P3C-induced lymphocyte rolling ([2]; TPP 5 ug/mouse i.p. with P3C, 24 hours): reduced | P3C-induced lymphocyte adhering ([2]; TPP 5 ug/mouse i.p. with P3C, 24 hours, listed as TPP): reduced; also recorded: significantly reversed | streptococcal infection-induced lymphocyte adhering [2, 3]: significantly reversed | streptococcal infection-induced lymphocyte rolling [2, 3]: reversed; also recorded: reduced | size of adherent cells ([2]; TPP in infected or P3C treated mice): did not attenuate | CFA-induced B cell expansion (CLIP+ B cells; 3x CAP treatment): reversed | number of CLIP+ B cells (pro-inflammatory B cell populations) (CLIP+ B cells; CAP from 3 days after CFA, once every 3 days until day 10): significantly reduced; also recorded: selectively depletes
